Experimental data taken from PMC7311950, “Potent Tetrahydroquinolone Eliminates Apicomplexan Parasites” (Frontiers in Cellular and Infection Microbiology, 2020).
Values after ≈ are worked out from the molar mass of the structure shown.

Experiments:
[1] = Metabolic stability in mouse liver microsomes; conditions: mouse, liver microsomes, T1/2 (M), predicted half-life in mouse liver microsomes; Figure 1A; min in Figure 2E for the same values
Description: (§1) The effects of changing R1 as 7-Et, 7-Me, 6-CF3, or 6-Me on activity against RH strain tachyzoites, kinetic solubility, and metabolic stability were compared. Kinetic solubility and metabolic stability in human or murine liver microsomes were measured. The hERG (human Ether-à-go-go-Related) liability was also determined. The hERG gene (KCNH2) encodes a protein Kv11.1, the alpha subunit of a potassium ion channel. This channel conducts the rapid component of the delayed rectifier potassium current, IKr, which is critical for repolarization of cardiac action potentials. A reduction in hERG currents from adverse drug effects can lead to long QT interval syndromes. These syndromes are characterized by action potential prolongation, lengthening of the QT interval on surface EKG, and an increased risk for “torsade de pointes” arrhythmias and sudden death. The MDCK-MDR1 Permeability Assay was also performed. MDCK-MDR1 refers to the ability of a compound to permeate across membranes of MDCK-MDR1 (Madin Darby canine kidney [MDCK] cells with the MDR1 gene [ABCB1], the gene encoding for the efflux protein, P-glycoprotein (P-gp)) in vitro. Assessing transport in both directions (apical to basolateral and basolateral to apical) across the cell monolayers enables an efflux ratio to be determined. […] This provides a prediction of blood brain barrier (BBB) penetration potential/permeability and efflux ratio. Effect in CACO-2 (Colon Adenocarcinoma cells) as a permeability assay and on cytochrome P450 (CYP 450) were also determined. CYP enzymes catalyze oxidative biotransformation (phase 1 metabolism) of most drugs. CYP enzymes, bind to membranes in a cell (cyto) and contain a heme pigment (chrome and P) that absorbs light at a wavelength of 450 nm when exposed to carbon monoxide. Metabolism of a drug by CYP enzymes is a major source of variability in drug effect. These were measured by Chem Partners. The relative effect on HFF and parasite enzymes also were compared.
(§2) In vitro absorption, distribution, metabolism, excretion, and toxicity (ADMET) analyses of the THQ compounds were outsourced to ChemPartner Shanghai Ltd. ELQ-271 (synthesized in-house) was tested as a comparison.

[2] = Kinetic solubility in PBS pH 7.4 (Chem Partners); conditions: PBS; for solubility kinetic: pH 7.4, aqueous buffer, kinetic from dmso stock
Description: as §1

[3] = test system: T. gondii RH-YFP tachyzoites; assay: In vitro challenge assay, RH strain YFP tachyzoites in HFF; assay type: cell-based; conditions: Toxoplasma gondii; RH-YFP tachyzoites in HFF; Figure 1A; read-out: Tachy IC50
Description: RH strain YFP Tachyzoites. Protocol was adapted from Fomovska et al. ([2012a],[b]) for HFF. HFF were cultured on a flat, clear-bottomed, black 96-well plate to 90–100% confluence. IMDM (1x, [+] glutamine, [+] 25 mM HEPES, [+] Phenol red, 10% FBS [Gibco, Denmark]) was removed and replaced with IMDM-C(1x, [+] glutamine, [+] 25 mM HEPES, [–] Phenol red, 10% FBS)[Gibco, Denmark]). RH-YFP, lysed from host cells by passing twice through a 27-gauge needle, were counted, then diluted to 32,000/mL in IMDM-C. HFF were infected with 3200 RH-YFP, then returned to 37°C, CO2 (5%) incubator for 1–2 h for infection. Various concentrations of the compounds in 20 μL IMDM-C were added to each well. There were triplicates for each condition. Controls were pyrimethamine/sulfadiazine (standard treatment), 0.1% DMSO only, HFF only, and untreated cultures of HFF infected with 2-fold dilutions of YFP expressing parasites (called “YFP gradient” to establish amount of color from known numbers of YFP expressing parasites). Cells were incubated at 37°C for 72 h. Plates were read using a fluorimeter (Synergy H4 Hybrid Reader, BioTek) to ascertain amount of relative fluorescence units (RFU) YFP, to measure parasite burden after treatment. Data were collected using Gen5 software with IC50 calculated by graphical analysis in Excel.
An initial screening assay of 10 μM, 1 μM, 100 nM, and 10 nM of the compounds was performed. Compounds were not considered effective or pursued for further analysis if there was no inhibition of tachyzoites at 1 μM. If compounds were effective at 1 μM, another experiment was performed to assess effect at 1 μM, 500, 250, 125, 62.5, and 31.25 nM.

[4] = test system: T. gondii EGS strain bradyzoites; assay: In vitro challenge assay for EGS strain bradyzoites; assay type: cell-based, Toxoplasma gondii; conditions: Toxoplasma gondii; EGS strain in HFF; Figure 1A; read-out: Brady IC50
Description: HFF cells were grown in IMDM on removable, sterile glass cover slips in the bottom of a clear, flat-bottomed 24-well plate. Cultures were infected with 3 × 10^4 EGS strain parasites per well, in 0.5 mL media. The plate was returned to incubator at 37°C overnight. The following day, the media was removed. Colorless IMDM and compounds were added to make various concentrations of the drug. Total volume was 0.5 mL. Two wells had media only, as a control. Plates were returned to the 37°C incubator for 72 h, checked once each 24 h. If tachyzoites were visible in the control before 72 h, cells were fixed and stained. Cells were fixed using 4% paraformaldehyde and stained with Fluorescein-labeled Dolichos Biflorus Agglutinin, DAPI, and antibody to BAG1. Disks were removed, mounted on glass slides, and visualized using microscopy (Nikon Tl7). Slides were scanned using a CRi Panoramic Scan Whole Slide Scanner and viewed using Panoramic Viewer Software. Effects of compounds were quantitated by counting cysts in controls and treated cultures. Dolichos staining delimited structures and single organisms that remained were counted in a representative field of view. This was then multiplied by a factor determined by the total area of the cover slip in order to estimate the number of cysts and organisms in each condition. When the following forms were observed: “true cysts” with a dolichos-staining wall, “pseudocysts” or tight clusters of parasites, and small organisms, if there were fewer than four parasites visible in a cluster, organisms were counted individually (as “small organisms”). The entire scanned coverslip with all fields was also reviewed by 3 observers to confirm consistency.

[5] = Metabolic stability in human liver microsomes; conditions: human, liver microsomes
Description: as §1, §2

Cc1[nH]c2ccccc2c(=O)c1-c1ccc(Oc2ccc(OC(F)(F)F)cc2)cc1 [ELQ271, reference compound]
half-life [1]: 7.47 h
solubility ([2]; pH 7.4, aqueous solubility (PBS, pH 7.4), amorphous compounds): 0.2 µM (≈ 0.0823 µg/mL)
IC50 [3]: 30 nM
IC50 [4]: 5000 nM

Cc1[nH]c2c(c(=O)c1-c1ccc(Oc3ccc(OC(F)(F)F)cc3)cc1)CC(C)CC2 (centres unmarked) [JAG106]
IC50 [3]: 2500 nM

CC1CCc2c([nH]c(CO)c(-c3ccc(Oc4ccc(OC(F)(F)F)cc4)cc3)c2=O)C1 (centres unmarked) [JAG193]
IC50 [3]: 50 nM

Cc1[nH]c2c(c(=O)c1-c1ccc(Oc3ccc(F)c(Cl)c3)cc1)CCCC2 [AS021]
half-life [1]: 0.685 h
solubility kinetic [2]: 2 µM (≈ 0.768 µg/mL)
IC50 [3]: 65 nM
IC50 [4]: 1000 nM

O=C(O)c1[nH]c2c(c(=O)c1-c1ccc(Oc3ccc(OC(F)(F)F)cc3)cc1)CCCC2 [JAG091]
IC50 [3]: > 10000 nM

Cc1[nH]c2c(c(=O)c1-c1ccc(Oc3cccc(F)c3)cc1)CCCC2 [JAG069]
half-life [1]: 0.29 h
half-life [5]: 3.37 h
solubility kinetic [2]: 0.5 µM (≈ 0.175 µg/mL)
IC50 [3]: 30 nM
IC50 [4]: 1000 nM

Cc1[nH]c2c(c(=O)c1-c1ccc(O)cc1)CCCC2 [JAG094]
IC50 [3]: 1000 nM

Cc1[nH]c2c(c(=O)c1-c1ccc(Oc3ccc(Cl)c(Cl)c3)cc1)CCCC2 [JAG084]
half-life [1]: 1.05 h
solubility kinetic [2]: 0.68 µM (≈ 0.272 µg/mL)
IC50 [3]: 55 nM
IC50 [4]: 1000 nM

O=c1c2c([nH]c(CO)c1-c1ccc(Oc3ccc(OC(F)(F)F)cc3)cc1)CC(C(F)(F)F)CC2 (centres unmarked) [JAG187]
IC50 [3]: 2000 nM

Cc1[nH]c2c(c(=O)c1-c1ccc(Oc3cc(Cl)cc(Cl)c3)cc1)CCCC2 [AS022]
half-life [1]: 0.477 h
solubility kinetic [2]: 6.25 µM (≈ 2.5 µg/mL)
IC50 [3]: 30 nM
IC50 [4]: 1000 nM

CCC1CCc2c([nH]c(C)c(-c3ccc(Oc4ccc(OC(F)(F)F)cc4)cc3)c2=O)C1 (centres unmarked) [JAG121]
half-life [1]: 1.05 h
solubility kinetic [2]: 0.16 µM (≈ 0.071 µg/mL)
IC50 [3]: 55 nM

Cc1c(-c2ccc(Oc3ccc(OC(F)(F)F)cc3)cc2)c(=O)c2c(n1C)CCCC2 [JAG023]
IC50 [3]: 800 nM

Cc1[nH]c2c(c(=O)c1-c1ccc(Oc3ccc(F)cc3)cc1)CCCC2 [JAG058]
half-life [1]: 0.653 h
half-life [5]: 4.39 h
solubility kinetic [2]: 2.38 µM (≈ 0.832 µg/mL)
IC50 [3]: 40 nM
IC50 [4]: 1000 nM

Cc1[nH]c2c(c(=O)c1-c1ccc(Oc3ccc(OC(F)(F)F)cc3)cc1)CCC(C(F)(F)F)C2 (centres unmarked) [JAG162]
half-life [1]: 2.41 h
solubility kinetic [2]: 0.02 µM (≈ 0.00967 µg/mL)
IC50 [3]: 300 nM

Cc1[nH]c2ccnn2c(=O)c1-c1ccc(Oc2ccc(OC(F)(F)F)cc2)cc1 [MJM141]
half-life [5]: 4.64 h
solubility kinetic [2]: 0.94 µM (≈ 0.377 µg/mL)
IC50 [3]: 8200 nM
IC50 [4]: 10000 nM

Cc1[nH]c2c(c(=O)c1-c1ccc(Oc3cc(Cl)nc(Cl)c3)cc1)CCCC2 [AS034]
half-life [1]: 0.415 h
solubility kinetic [2]: 5.05 µM (≈ 2.03 µg/mL)
IC50 [3]: 280 nM

Cc1[nH]c2c(c(=O)c1-c1ccc(Oc3cccc(C(F)(F)F)c3)cc1)CCCC2 [AS012]
half-life [1]: 0.501 h
solubility kinetic [2]: 2.19 µM (≈ 0.875 µg/mL)
IC50 [3]: 260 nM

Cc1[nH]c2c(c(=O)c1-c1ccc(Oc3ccc(C(F)(F)F)cc3)cc1)CCCC2 [JAG063]
half-life [1]: 2.12 h
half-life [5]: 8.94 h
solubility kinetic [2]: 0.45 µM (≈ 0.18 µg/mL)
IC50 [3]: 200 nM

Cc1[nH]c2c(c(=O)c1-c1ccc(Oc3cccc(OC(F)(F)F)c3)cc1)CCCC2 [AS006]
half-life [1]: 0.431 h
solubility kinetic [2]: 0.55 µM (≈ 0.228 µg/mL)
IC50 [3]: 60 nM
IC50 [4]: 1000 nM

Cc1[nH]c2ccccc2c(=O)c1-c1ccc(Oc2ccccc2)cc1 [MJM129]
IC50 [3]: 50 nM
IC50 [4]: > 10000 nM

Cc1[nH]c2c(c(=O)c1-c1ccc(Oc3ccc(OC(F)(F)F)cc3)cc1)CC(C(F)(F)F)CC2 (centres unmarked) [JAG100]
IC50 [3]: > 10000 nM

CCOC(=O)Oc1c2c(nc(C)c1-c1ccc(Oc3ccc(OC(F)(F)F)cc3)cc1)CCCC2 [JAG171]
IC50 [3]: 100 nM

Cc1[nH]c2c(c(=O)c1-c1ccc(Oc3ccc4c(c3)OCO4)cc1)CCCC2 [AS032]
IC50 [3]: 200 nM

Cc1[nH]c2c(c(=O)c1-c1ccc(Oc3cc(Cl)cc(Cl)c3)cc1)CCC(C)C2 (centres unmarked) [JAG208]
IC50 [3]: 20 nM
IC50 [4]: 1000 nM

CCC1CCc2c([nH]c(CO)c(-c3ccc(Oc4ccc(OC(F)(F)F)cc4)cc3)c2=O)C1 (centres unmarked) [JAG174]
IC50 [3]: 380 nM

Cc1[nH]c2cnccc2c(=O)c1-c1ccc(Oc2ccc(OC(F)(F)F)cc2)cc1 [JAG129]
solubility kinetic [2]: 5.12 µM (≈ 2.11 µg/mL)
IC50 [3]: 85 nM

Cc1[nH]c2c(c(=O)c1-c1ccc(Oc3ccc(OC(F)(F)F)cc3)cc1)CCC(C)C2 (centres unmarked) [JAG107]
half-life [1]: 1.87 h
solubility kinetic [2]: 0.03 µM (≈ 0.0129 µg/mL)
IC50 [3]: 50 nM

Cc1[nH]c2c(c(=O)c1-c1ccc(Oc3cccc(Cl)c3)cc1)CCCC2 [JAG062]
half-life [1]: 0.207 h
half-life [5]: 2.26 h
solubility kinetic [2]: 0.33 µM (≈ 0.121 µg/mL)
IC50 [3]: 16 nM
IC50 [4]: 1000 nM
